{"source": "ChEMBL document CHEMBL3885861", "about": "“Open TG-GATES”", "organism": "Rattus norvegicus", "experiment": "Open TG-GATES - Regimen: Single", "assay_type": "toxicity, organism-based, Sprague-Dawley", "parameters": "regimen Single, gender Male, age 6 weeks", "details": "in vivo, po, 30 mg/kg, route gavage, dose level High; for APTT / Bas / Eos / Fbg / Hb / Ht / Lym / MCH / MCHC / MCV / Mono / Neu / PT / Plat / RBC / Ret / WBC: tissue Blood; for KIDNEY_L / KIDNEY_R / KIDNEY_TOTAL: tissue Kidney; for LIVER: tissue Liver; for A/G / ALP / ALT / AST / BUN / CRE / Ca / Cl / DBIL / GLC / IP / K / LDH / Na / PL / RALB / TBIL / TC / TG / TP / gamma-GTP: tissue Plasma"}
{"compound": "Nc1c2c(nc3ccccc13)CCCC2", "note": "[TACRINE]", "values": [{"measurement": "TERMINAL_BW", "setting": "9 h", "result": 202.2, "unit": "g"}, {"measurement": "APTT", "setting": "9 h", "result": 21, "unit": "s"}, {"measurement": "Bas", "setting": "9 h", "result": 0, "unit": "%"}, {"measurement": "Eos", "setting": "9 h", "result": 0.4, "unit": "%"}, {"measurement": "Fbg", "setting": "9 h", "result": 339.6, "unit": "mg/dL"}, {"measurement": "Hb", "setting": "9 h", "result": 13.4, "unit": "g/dL"}, {"measurement": "Ht", "setting": "9 h", "result": 38.9, "unit": "%"}, {"measurement": "Lym", "setting": "9 h", "result": 53, "unit": "%"}, {"measurement": "MCH", "setting": "9 h", "result": 21, "unit": "pg"}, {"measurement": "MCHC", "setting": "9 h", "result": 34.3, "unit": "%"}, {"measurement": "MCV", "setting": "9 h", "result": 61.3, "unit": "fL"}, {"measurement": "Mono", "setting": "9 h", "result": 3, "unit": "%"}, {"measurement": "Neu", "setting": "9 h", "result": 43, "unit": "%"}, {"measurement": "PT", "setting": "9 h", "result": 15.6, "unit": "s"}, {"measurement": "Plat", "setting": "9 h", "result": 128.9, "unit": "x10_4/uL"}, {"measurement": "RBC", "setting": "9 h", "result": 634.8, "unit": "x10_4/ul"}, {"measurement": "Ret", "setting": "9 h", "result": 8.3, "unit": "%"}, {"measurement": "WBC", "setting": "9 h", "result": 78.6, "unit": "x10_2/uL"}, {"measurement": "KIDNEY_L", "setting": "9 h", "result": 0.9, "unit": "g"}, {"measurement": "KIDNEY_R", "setting": "9 h", "result": 0.9, "unit": "g"}, {"measurement": "KIDNEY_TOTAL", "setting": "9 h", "result": 1.8, "unit": "g"}, {"measurement": "LIVER", "setting": "9 h", "result": 8.4, "unit": "g"}, {"measurement": "A/G", "setting": "9 h", "result": 1.3}, {"measurement": "ALP", "setting": "9 h", "result": 1511.6, "unit": "IU/L"}, {"measurement": "ALT", "setting": "9 h", "result": 64.4, "unit": "IU/L"}, {"measurement": "AST", "setting": "9 h", "result": 283, "unit": "IU/L"}, {"measurement": "BUN", "setting": "9 h", "result": 11.6, "unit": "mg/dL"}, {"measurement": "CRE", "setting": "9 h", "result": 0.2, "unit": "mg/dL"}, {"measurement": "Ca", "setting": "9 h", "result": 10.7, "unit": "mg/dL"}, {"measurement": "Cl", "setting": "9 h", "result": 106.2, "unit": "meq/L"}, {"measurement": "DBIL", "setting": "9 h", "result": 0.004, "unit": "mg/dL"}, {"measurement": "GLC", "setting": "9 h", "result": 222.6, "unit": "mg/dL"}, {"measurement": "IP", "setting": "9 h", "result": 9, "unit": "mg/dL"}, {"measurement": "K", "setting": "9 h", "result": 3.8, "unit": "meq/L"}, {"measurement": "LDH", "setting": "9 h", "result": 264.6, "unit": "IU/L"}, {"measurement": "Na", "setting": "9 h", "result": 141.4, "unit": "meq/L"}, {"measurement": "PL", "setting": "9 h", "result": 160.2, "unit": "mg/dL"}, {"measurement": "RALB", "setting": "9 h", "result": 3.3, "unit": "g/dL"}, {"measurement": "TBIL", "setting": "9 h", "result": 0.012, "unit": "mg/dL"}, {"measurement": "TC", "setting": "9 h", "result": 84, "unit": "mg/dL"}, {"measurement": "TG", "setting": "9 h", "result": 42.2, "unit": "mg/dL"}, {"measurement": "TP", "setting": "9 h", "result": 5.9, "unit": "g/dL"}, {"measurement": "gamma-GTP", "setting": "9 h", "result": 1, "unit": "IU/L"}, {"measurement": "TERMINAL_BW", "setting": "24 h", "result": 192.1, "unit": "g"}, {"measurement": "APTT", "setting": "24 h", "result": 20.8, "unit": "s"}, {"measurement": "Bas", "setting": "24 h", "result": 0, "unit": "%"}, {"measurement": "Eos", "setting": "24 h", "result": 1, "unit": "%"}, {"measurement": "Fbg", "setting": "24 h", "result": 351.6, "unit": "mg/dL"}, {"measurement": "Hb", "setting": "24 h", "result": 14.3, "unit": "g/dL"}, {"measurement": "Ht", "setting": "24 h", "result": 40.9, "unit": "%"}, {"measurement": "Lym", "setting": "24 h", "result": 84.4, "unit": "%"}, {"measurement": "MCH", "setting": "24 h", "result": 21.3, "unit": "pg"}, {"measurement": "MCHC", "setting": "24 h", "result": 34.8, "unit": "%"}, {"measurement": "MCV", "setting": "24 h", "result": 61.2, "unit": "fL"}, {"measurement": "Mono", "setting": "24 h", "result": 2.2, "unit": "%"}, {"measurement": "Neu", "setting": "24 h", "result": 12.4, "unit": "%"}, {"measurement": "PT", "setting": "24 h", "result": 16.1, "unit": "s"}, {"measurement": "Plat", "setting": "24 h", "result": 130.3, "unit": "x10_4/uL"}, {"measurement": "RBC", "setting": "24 h", "result": 668.8, "unit": "x10_4/ul"}, {"measurement": "Ret", "setting": "24 h", "result": 6.7, "unit": "%"}, {"measurement": "WBC", "setting": "24 h", "result": 68.9, "unit": "x10_2/uL"}, {"measurement": "KIDNEY_L", "setting": "24 h", "result": 0.9, "unit": "g"}, {"measurement": "KIDNEY_R", "setting": "24 h", "result": 0.9, "unit": "g"}, {"measurement": "KIDNEY_TOTAL", "setting": "24 h", "result": 1.8, "unit": "g"}, {"measurement": "LIVER", "setting": "24 h", "result": 7.7, "unit": "g"}, {"measurement": "A/G", "setting": "24 h", "result": 1.3}, {"measurement": "ALP", "setting": "24 h", "result": 1513.8, "unit": "IU/L"}, {"measurement": "ALT", "setting": "24 h", "result": 44.4, "unit": "IU/L"}, {"measurement": "AST", "setting": "24 h", "result": 121.6, "unit": "IU/L"}, {"measurement": "BUN", "setting": "24 h", "result": 15, "unit": "mg/dL"}, {"measurement": "CRE", "setting": "24 h", "result": 0.2, "unit": "mg/dL"}, {"measurement": "Ca", "setting": "24 h", "result": 10.8, "unit": "mg/dL"}, {"measurement": "Cl", "setting": "24 h", "result": 107.8, "unit": "meq/L"}, {"measurement": "DBIL", "setting": "24 h", "result": 0.008, "unit": "mg/dL"}, {"measurement": "GLC", "setting": "24 h", "result": 187.6, "unit": "mg/dL"}, {"measurement": "IP", "setting": "24 h", "result": 8.8, "unit": "mg/dL"}, {"measurement": "K", "setting": "24 h", "result": 4.2, "unit": "meq/L"}, {"measurement": "LDH", "setting": "24 h", "result": 259.6, "unit": "IU/L"}, {"measurement": "Na", "setting": "24 h", "result": 142.2, "unit": "meq/L"}, {"measurement": "PL", "setting": "24 h", "result": 140.4, "unit": "mg/dL"}, {"measurement": "RALB", "setting": "24 h", "result": 3.2, "unit": "g/dL"}, {"measurement": "TBIL", "setting": "24 h", "result": 0.042, "unit": "mg/dL"}, {"measurement": "TC", "setting": "24 h", "result": 88.6, "unit": "mg/dL"}, {"measurement": "TG", "setting": "24 h", "result": 31.6, "unit": "mg/dL"}, {"measurement": "TP", "setting": "24 h", "result": 5.8, "unit": "g/dL"}, {"measurement": "gamma-GTP", "setting": "24 h", "result": 1, "unit": "IU/L"}]}
